Reference: US11331364B2, “Use for JNK inhibitor molecules for treatment of various diseases” (Xigen Inflammation Ltd., priority 2014, dated 2022)
Square brackets hold non-standard residues; d marks the D form. Peptide text beside a SMILES is read from it.

Columns and labels:
[1] = tested on: endotoxins-induced uveitis albino rat model; test: Endotoxins-induced uveitis (EIU), single intravenous injection, clinical scoring; assay type: in vivo; parameters: key to clinical score (mean±SEM) / clinical score, median: clinical ocular inflammation score per eye, 0 to 4; settings: 24 h after LPS
Description: The anti-inflammatory potency of the JNK inhibitor of SEQ ID NO: 172 was tested in albino rats following intravenous administration (EIU/LPS model). The aim of this study was to determine the effects of single intravenous injections of SEQ ID NO: 172 (0.015, 0.18, and 1.80 mg/kg) on the inflammatory response in an endotoxins-induced uveitis albino rat model and to compare these affects to those obtained with prior art JNK inhibitor of SEQ ID NO: 197 (2 mg/kg). As a further control served phosphate sodic dexamethasone (“reference”) and vehicle (0.9% NaCl).
Sixty (60) male Lewis rats were randomly divided into six (6) groups often (10) animals each. 0.9% NaCl (vehicle, “control”), SEQ ID NO: 197 at 2 mg/kg and SEQ ID NO: 172 at three concentrations (1.80 mg/kg, 0.18 mg/kg and 0.015 mg/kg) were administered by intravenous injection just before EIU induction (on the day of induction). Accordingly, phosphate sodic dexamethasone (20 Dg/eye, 5 μl; “reference”) was administered by a single sub-conjunctival injection in both eyes just before EIU induction (on the day of induction). EIU was induced by footpad injection of lipopolysaccharide (LPS, 1 mg/kg). 24 hours after LPS injection, inflammatory response was evaluated by clinical scoring.
The intensity of clinical ocular inflammation was scored on a scale from 0 to 4 for each eye: […]

[2] = tested on: mouse model of scopolamine-induced dry eye; test: Scopolamine-induced dry eye, topical ocular TID 21 days (TBUT, PRTT, histopathology); assay type: in vivo; settings: for Mean PRTT AUC: Day 7-21, in mm·day (unit assumed); for Mean Calculated TBUT AUC: Day 7 to Day 21, in s·day (unit assumed)
Description: The objective of this study was to assess the effects of two different compounds, the all-D-retro-inverso JNK-inhibitor (poly-)peptide of SEQ ID NO: 197 and the JNK inhibitor (poly-)peptide of SEQ ID NO: 172, at three dose levels in a mouse model of scopolamine-induced dry eye.
The peptides of SEQ ID NO: 197 and SEQ ID NO: 172 were tested for efficacy in this murine model of dry eye. The peptides were both tested at a low, medium and a high dose. […] The vehicle, which also served as the negative control, was 0.9% Sodium Chloride for Injection USP.
The study consisted of a total of 9 groups of female C57BL/6 mice, comprising 8 groups of 12 mice each and an additional group of 4 mice. Bilateral short-term dry eye was induced by a combination of scopolamine hydrobromide (Sigma-Aldrich Corp., St. Louis, Mo.) injection (subcutaneous (SC), four times daily, 0.5 mg/dose, Days 0-21) and by exposing mice to the drying environment of constant air draft. […] Mice of Group 9 were maintained as un-induced, (no dry eye) untreated controls.
During the in-life (treatment) period, clinical observations were recorded once daily; slit-lamp examination (SLE) with corneal fluorescein staining, tear break-up time test (TBUT), and phenol red thread test (PRTT) were performed three times per week. Necropsies were performed on Day 22; eyes, eye lids, conjunctivae, and lacrimal glands were collected from both eyes of each animal. Tissues from the right eyes (oculus dexter, OD) were fixed and then evaluated microscopically. Tissues from the left eyes (oculus sinister; OS) were flash-frozen in liquid nitrogen and stored frozen at −80° C. for possible subsequent analyses.
The TBUT test was conducted three times weekly by measuring the time elapsed in seconds between a complete blink after application of fluorescein to the cornea and the appearance of the first random dry spot in the tear film. […] At least ninety seconds later, corneal epithelial damage was graded using a slit-lamp with a cobalt blue filter after another drop of 0.1% fluorescein was reapplied to the cornea; the cornea then was scored per the Draize ocular scale.
Tear production was measured three times a week in both eyes using PRTT test strips (Zone-Quick; Menicon, Nagoya, Japan). Prior to the first treatment of the day, a thread was applied to the lateral canthus of the conjunctival fornix of each eye for 30 seconds under slit-lamp biomicroscopy. Tear migration up the tread (i.e., the length of the wetted cotton thread) was measured using a millimeter scale.
At necropsy on Day 22, both eyes from each animal, including the globes, lacrimal glands, eyelids, and conjunctivae, were excised. The right eye and associated tissues were fixed by overnight submersion in modified Davidson's solution followed by transfer to 10% neutral buffered formalin (NBF). The fixed tissues of the right eye were dehydrated, embedded in paraffin, sectioned at 3 to 5-μm thicknesses, and slide-mounted tissues were stained with hematoxylin and eosin (H & E). Stained slides were evaluated via light microscopy. Detailed and complete histopathologic assessment was conducted on all parts of the eye, with at least two section levels being examined histopathologically for each right eye. Special attention was paid to the cornea, epithelia (including goblet cells) of the conjunctiva and cornea, as well as the lacrimal gland. These tissues were scored for injury based upon a 0-4 scale, with 0 being normal, 1 being minimal, 2 being mild, 3 being moderate, and 4 being severe. For each cornea, scores were based on corneal epithelium thickness, and corneal inflammation.

[3] = tested on: Adriamycin-induced nephropathy in rats; test: Adriamycin-induced nephropathy; assay type: in vivo, rat; settings: 2 mg/kg IV Day 0
Excerpt: Adriamycin treatment induces glomerular disease in rat and mice mimicking human focal segmental and glomerular sclerosis (FSGS). In this model, tubular and interstitial inflammatory lesions occur during the disease course, partly due to heavy proteinuria. In the absence of therapy, kidney disease progresses to terminal renal failure within eight weeks. Podocyte injury is one of the initial steps in the sequences leading to glomerulosclerosis. The aim of the study was to investigate whether a JNK inhibitor could prevent the development of renal lesions and the renal failure.
30 male Sprague-Dawley rats (Charles River) were used in this study (divided into 3 groups of ten rats). Nephropathy was induced by a single intravenous injection of Adriamycin […] on Day 0. The JNK inhibitor of SEQ ID NO: 172 (2 mg/kg; in NaCl 0.9%) or vehicle was administered intravenously into the tail vein on Day 0. The administration volume was 0.2 ml.
Retroorbital blood was collected at Days 7, 14, 28, 42 and 56 from 4 rats per group. Serum creatinine concentrations, blood urea and protidemia were measured using appropriate kits from Advia Chemistry 1650 (Bayer Healthcare AG, Leverkusen, Germany).
Two rats per group were sacrificed on Days 7, 14, 28, 42 and 56 after anesthesia. After animal sacrifice, both kidneys were collected. For histopathological examination fixed tissue specimens were dehydrated in graded alcohol solutions, cleared in toluene, and embedded in paraffin. Sections (4 µm) were stained with periodic acid-Schiff (PAS), and Masson's trichrome staining was performed to detect collagen deposition. Glomerular and tubulointerstitial sclerosis were quantified under microscope.

Structure (SMILES): CC(C)C[C@@H](NC(=O)[C@@H](Cc1ccccc1)NC(=O)[C@H]1CCCN1C(=O)[C@@H](CCC(N)=O)NC(=O)[C@H](NC(=O)[C@H]1CCCN1C(=O)[C@@H](CCCNC(=N)N)NC(=O)[C@@H](CO)NC(=O)[C@@H](CCC(N)=O)NC(=O)[C@H](N)CC(=O)O)C(C)C)C(=O)N[C@H](CC(N)=O)C(=O)N[C@H](CC(C)C)C(=O)N[C@@H](C(=O)N[C@@H](C(=O)N1CCC[C@@H]1C(=O)N[C@H](CCCNC(=N)N)C(=O)N[C@H](CCCCN)C(=O)N1CCC[C@@H]1C(=O)N[C@H](CCCNC(=N)N)C(=O)N1CCC[C@@H]1C(=O)N1CCC[C@@H]1C(=O)N[C@H](CCCNC(=N)N)C(=O)N[C@H](CCCNC(=N)N)C(=O)N[C@H](CCCNC(=N)N)C(=O)N[C@H](CCC(N)=O)C(=O)N[C@H](CCCNC(=N)N)C(=O)N[C@H](CCCNC(=N)N)C(=O)N[C@H](CCCCN)C(=O)N[C@H](CCCCN)C(=O)N[C@H](CCCNC(=N)N)C(=O)NCC(N)=O)[C@H](C)O)[C@H](C)O [SEQ ID NO: 197, dqsrpvqpflnlttprkprpprrrqrrkkrg, reference compound] (H-[dD][dQ][dS][dR][dP][dV][dQ][dP][dF][dL][dN][dL][dT][dT][dP][dR][dK][dP][dR][dP][dP][dR][dR][dR][dQ][dR][dR][dK][dK][dR]G-NH2)
- clinical score (mean±SEM) ([1]; 2 mg/kg i.v.): 2.2±0.3
- clinical score, median ([1]; 2 mg/kg i.v.): 2
- decrease of EIU scores vs vehicle group ([1]; 2 mg/kg i.v.): 40%
- corneal changes in comparison to other treatment groups ([2]; 0.06% TID OU): slightly more severe
- Mean PRTT AUC ([2]; 0.06% TID OU): 39.96
- Mean Calculated TBUT AUC ([2]; 0.06% TID OU): 88.54
- Mean PRTT AUC ([2]; 0.25% TID OU): 42.79
- Mean Calculated TBUT AUC ([2]; 0.25% TID OU): 91.19
- histological cornea scores compared to cyclosporine group ([2]; 0.6% TID OU): not significantly different than the cyclosporine group scores
- Mean PRTT AUC ([2]; 0.6% TID OU): 43.17
- Mean Calculated TBUT AUC ([2]; 0.6% TID OU): 89.98
- PRTT, aqueous tear production ([2]; low, mid and high dose levels): generally dose-dependent increases in PRTT
- TBUT ([2]; low, mid and high dose levels): slight generally dose-dependent increases in TBUT

Structure (SMILES): CC(C)C[C@H](NC(=O)[C@H](CC(N)=O)NC(=O)[C@H](CC(C)C)NC(=O)[C@@H](NC(=O)[C@@H](C)NC(=O)[C@@H]1CCCN1C(=O)[C@H](CCCNC(=N)N)NC(=O)[C@@H](CCCCN)NC(=O)[C@@H]1CCCN1C(=O)[C@H](CCCNC(=N)N)NC(=O)[C@@H](CCCNC(=N)N)NC(=O)[C@H](CCCNC(=N)N)NC(=O)[C@H](CCCNC(=N)N)NC(=O)[C@H](CCC(N)=O)NC(=O)[C@@H](CCCNC(=N)N)NC(=O)[C@H](CCCNC(=N)N)NC(=O)[C@H](CCCCN)NC(=O)[C@H](CCCCN)NC(=O)[C@H](N)CCCNC(=N)N)[C@@H](C)O)C(=O)N[C@H](Cc1ccccc1)C(N)=O [SEQ ID NO: 172, rKKRrQRRrRPkRPaTLNLf] (H-[dR]KKR[dR]QRR[dR]RP[dK]RP[dA]TLNL[dF]-NH2; N-terminus assumed)
- clinical score (mean±SEM) ([1]; 0.015 mg/kg i.v.): 2.3±0.3
- clinical score, median ([1]; 0.015 mg/kg i.v.): 2
- reduction of inflammation vs vehicle ([1]; 0.015 mg/kg i.v.): 36%
- clinical score (mean±SEM) ([1]; 0.18 mg/kg i.v.): 2.4±0.3
- clinical score, median ([1]; 0.18 mg/kg i.v.): 2
- reduction of inflammation vs vehicle ([1]; 0.18 mg/kg i.v.): 33%
- clinical score (mean±SEM) ([1]; 1.80 mg/kg i.v.): 2.1±0.3
- clinical score, median ([1]; 1.80 mg/kg i.v.): 2
- reduction of severity of ocular inflammation vs vehicle ([1]; 1.80 mg/kg i.v.): 42%
- kidney histopathology (PAS, Masson trichrome) ([3]; Day 8): relatively normal appearance
- kidney histopathology (PAS, Masson trichrome) ([3]; Day 56): few focal and segmental glomerulosclerosis and tubulointerstitial fibrosis
- urea serum level ([3]; throughout the course of the disease): below 10 mmol/l
- TBUT mean nadir (Day 7) ([2]; 0.05% TID OU): 6.6 ± 0.4 s
- TBUT mean peak (Day 9) ([2]; 0.05% TID OU): 8.0 ± 0.4 s
- Mean PRTT AUC ([2]; 0.05% TID OU): 44.38
- Mean Calculated TBUT AUC ([2]; 0.05% TID OU): 102.98
- TBUT mean nadir (Day 7) ([2]; 0.2% TID OU): 6.7 ± 0.4 s
- TBUT mean peak (Day 9) ([2]; 0.2% TID OU): 10.0 ± 0.7 s
- histological cornea scores compared to cyclosporine group ([2]; 0.2% TID OU): not significantly different than the cyclosporine group scores
- Mean PRTT AUC ([2]; 0.2% TID OU): 44.85
- Mean Calculated TBUT AUC ([2]; 0.2% TID OU): 119.08
- TBUT mean nadir (Day 7) ([2]; 0.6% TID OU): 6.7 ± 0.3 s
- TBUT mean peak (Day 9) ([2]; 0.6% TID OU): 9.9 ± 0.8 s
- histological cornea scores compared to cyclosporine group ([2]; 0.6% TID OU): not significantly different than the cyclosporine group scores
- Mean PRTT AUC ([2]; 0.6% TID OU): 46.10
- Mean Calculated TBUT AUC ([2]; 0.6% TID OU): 119.31
- TBUT AUC compared with vehicle control ([2]; SEQ ID NO: 172 0.05%, 0.2% and 0.6%, cyclosporine 0.05%, Kruskal-Wallis): significant increases in the TBUT AUC
- PRTT, aqueous tear production ([2]; low, mid and high dose levels): produced significantly more aqueous tears compared to vehicle-treated animals
